# Source: ChEMBL document CHEMBL5113489, “Design, synthesis, and biological evaluation of membrane-active honokiol derivatives as potent antibacterial agents” (Eur J Med Chem, 2022)
# Legend:
# Staphylococcus aureus [1] = experiment: Antibacterial activity against Staphylococcus aureus ATCC 31007; format: functional
# [2] = Selectivity index, ratio of HC50 for hemolytic activity in sheep RBC to MIC for antibacterial activity against Staphylococcus aureus ATCC 43300; format: toxicity; details: sheep red blood cells (erythrocytes)
# Staphylococcus aureus [3] = experiment: Antibacterial activity against Staphylococcus aureus ATCC 43300; format: functional
# Bacillus subtilis = experiment: Antibacterial activity against Bacillus subtilis ATCC 9372; format: functional
# Pseudomonas aeruginosa = experiment: Antibacterial activity against Pseudomonas aeruginosa ATCC 27853; format: functional
# Escherichia coli [4] = experiment: Antibacterial activity against Escherichia coli ATCC 25922; format: functional
# Staphylococcus aureus [5] = experiment: Antibacterial activity against Staphylococcus aureus ATCC 25923; format: functional
# [6] = Hemolytic activity in sheep RBC; format: toxicity, cell-based, Ovis aries, Erythrocyte; details: sheep red blood cells (erythrocytes)
# Escherichia coli [7] = experiment: Antibacterial activity against Escherichia coli ATCC 25922 assessed as resistance development by measuring fold increase in MIC; format: functional
# Staphylococcus aureus [8] = experiment: Antibacterial activity against Staphylococcus aureus ATCC 43300 assessed as resistance development by measuring fold increase in MIC; format: functional
# Staphylococcus aureus [9] = experiment: In vivo antibacterial activity against Staphylococcus aureus ATCC 43300 in septicemia mouse model assessed as log reduction in bacterial load in kidney at 5 mg/kg, administered every 12 hrs for 3 days; format: functional
# Staphylococcus aureus [10] = experiment: In vivo antibacterial activity against Staphylococcus aureus ATCC 43300 in septicemia mouse model assessed as log reduction in bacterial load in liver at 5 mg/kg, administered every 12 hrs for 3 days; format: functional
# Staphylococcus aureus [11] = experiment: In vivo antibacterial activity against Staphylococcus aureus ATCC 43300 in septicemia mouse model assessed as log reduction in bacterial load in spleen at 5 mg/kg, administered every 12 hrs for 3 days; format: functional
Compound,MIC (Staphylococcus aureus [1]),selectivity ratio [2],MIC (Staphylococcus aureus [3]),MIC (Bacillus subtilis),MIC (Pseudomonas aeruginosa),MIC (Escherichia coli [4]),MIC (Staphylococcus aureus [5]),HC50 [6],fold change (FC) (Escherichia coli [7]),fold change (FC) (Staphylococcus aureus [8]),log(activity) (Staphylococcus aureus [9]),log(activity) (Staphylococcus aureus [10]),log(activity) (Staphylococcus aureus [11])
C=CCc1ccc(OCCN)c(-c2ccc(OCCN)c(CC=C)c2)c1.Cl.Cl,16 µg/mL,86.7,8 µg/mL,32 µg/mL,64 µg/mL,16 µg/mL,8 µg/mL,694 µg/mL,,,,,
CN[C@H](CC(C)C)C(=O)N[C@H]1C(=O)N[C@@H](CC(N)=O)C(=O)N[C@H]2C(=O)N[C@H]3C(=O)N[C@H](C(=O)N[C@H](C(=O)O)c4cc(O)cc(O)c4-c4cc3ccc4O)[C@H](O)c3ccc(c(Cl)c3)Oc3cc2cc(c3O[C@@H]2O[C@H](CO)[C@@H](O)[C@H](O)[C@H]2O[C@H]2C[C@](C)(N)[C@H](O)[C@H](C)O2)Oc2ccc(cc2Cl)[C@H]1O [VANCOMYCIN],,,,0.5 µg/mL,> 128 µg/mL,> 128 µg/mL,,,,,,,
C=CCc1ccc(OCCC[N+](C)(C)CCCCCCCCCCCCCC)c(-c2ccc(OCCC[N+](C)(C)CCCCCCCCCCCCCC)c(CC=C)c2)c1.[Br-].[Br-],128 µg/mL,,> 128 µg/mL,> 128 µg/mL,> 128 µg/mL,> 128 µg/mL,16 µg/mL,,,,,,
COLISTIN,128 µg/mL,,64 µg/mL,8 µg/mL,1 µg/mL,2 µg/mL,64 µg/mL,,64,,,,
C=CCc1ccc(OCC(=O)NC(CCCCN)C(=O)NCc2ccc(-c3ccccc3)cc2)c(-c2ccc(OCC(=O)NC(CCCCN)C(=O)NCc3ccc(-c4ccccc4)cc3)c(CC=C)c2)c1.O=C(O)C(F)(F)F.O=C(O)C(F)(F)F (stereo not given),32 µg/mL,,16 µg/mL,8 µg/mL,> 128 µg/mL,> 128 µg/mL,32 µg/mL,,,,,,
C=CCc1ccc(OCC(=O)NC(CCCCN)C(=O)NCCCCCC)c(-c2ccc(OCC(=O)NC(CCCCN)C(=O)NCCCCCC)c(CC=C)c2)c1.O=C(O)C(F)(F)F.O=C(O)C(F)(F)F (stereo not given),8 µg/mL,62.7,8 µg/mL,8 µg/mL,16 µg/mL,16 µg/mL,8 µg/mL,502 µg/mL,,,,,
C=CCc1ccc(OCC(=O)NCCC[N+](C)(C)CCCCCC)c(-c2ccc(OCC(=O)NCCC[N+](C)(C)CCCCCC)c(CC=C)c2)c1.[Br-].[Br-],16 µg/mL,11.4,16 µg/mL,16 µg/mL,128 µg/mL,16 µg/mL,8 µg/mL,183 µg/mL,,,,,
C=CCc1ccc(O)c(-c2ccc(O)c(CC=C)c2)c1 [HONOKIOL],64 µg/mL,,128 µg/mL,32 µg/mL,> 128 µg/mL,> 128 µg/mL,64 µg/mL,,,,,,
C=CCc1ccc(OCC(=O)NC(CCCCN)C(=O)NCC23CC4CC(CC(C4)C2)C3)c(-c2ccc(OCC(=O)NC(CCCCN)C(=O)NCC34CC5CC(CC(C5)C3)C4)c(CC=C)c2)c1.O=C(O)C(F)(F)F.O=C(O)C(F)(F)F (stereo not given),4 µg/mL,> 320,4 µg/mL,4 µg/mL,> 128 µg/mL,> 128 µg/mL,8 µg/mL,1280 µg/mL,,,,,
C=CCc1ccc(OCC(=O)NCCC[N+](C)(C)CCCCCCCC)c(-c2ccc(OCC(=O)NCCC[N+](C)(C)CCCCCCCC)c(CC=C)c2)c1.[Br-].[Br-],4 µg/mL,61.5,2 µg/mL,4 µg/mL,16 µg/mL,8 µg/mL,2 µg/mL,123 µg/mL,,,,,
C=CCc1ccc(OCC(=O)NC(CCCCN)C(=O)NCCCCCCCCCC)c(-c2ccc(OCC(=O)NC(CCCCN)C(=O)NCCCCCCCCCC)c(CC=C)c2)c1.O=C(O)C(F)(F)F.O=C(O)C(F)(F)F (stereo not given),8 µg/mL,> 320,4 µg/mL,4 µg/mL,16 µg/mL,16 µg/mL,4 µg/mL,> 1280 µg/mL,,,,,
C=CCc1ccc(OCC(=O)NCCC[N+](C)(C)CCCC)c(-c2ccc(OCC(=O)NCCC[N+](C)(C)CCCC)c(CC=C)c2)c1.[Br-].[Br-],128 µg/mL,,128 µg/mL,> 128 µg/mL,> 128 µg/mL,128 µg/mL,64 µg/mL,,,,,,
C=CCc1ccc(OCC(=O)NCCC[N+](C)(C)CCCCCCCCCC)c(-c2ccc(OCC(=O)NCCC[N+](C)(C)CCCCCCCCCC)c(CC=C)c2)c1.[Br-].[Br-],4 µg/mL,13.2,4 µg/mL,8 µg/mL,128 µg/mL,32 µg/mL,2 µg/mL,53 µg/mL,,,,,
C=CCc1ccc(OCC(=O)NCCC[N+](C)(C)C)c(-c2ccc(OCC(=O)NCCC[N+](C)(C)C)c(CC=C)c2)c1.[I-].[I-],128 µg/mL,,> 128 µg/mL,> 128 µg/mL,> 128 µg/mL,16 µg/mL,64 µg/mL,,,,,,
C=CCc1ccc(OCCC[N+](C)(C)CCCCCCCC)c(-c2ccc(OCCC[N+](C)(C)CCCCCCCC)c(CC=C)c2)c1.[Br-].[Br-],2 µg/mL,18,2 µg/mL,1 µg/mL,16 µg/mL,8 µg/mL,2 µg/mL,36 µg/mL,,,,,
C=CCc1ccc(OCC(=O)NC(CCCCN)C(=O)NCCCC)c(-c2ccc(OCC(=O)NC(CCCCN)C(=O)NCCCC)c(CC=C)c2)c1.O=C(O)C(F)(F)F.O=C(O)C(F)(F)F (stereo not given),32 µg/mL,,16 µg/mL,8 µg/mL,32 µg/mL,32 µg/mL,16 µg/mL,,,,,,
C=CCc1ccc(OCCC[N+](C)(C)CCCCCCCCCC)c(-c2ccc(OCCC[N+](C)(C)CCCCCCCCCC)c(CC=C)c2)c1.[Br-].[Br-],32 µg/mL,,4 µg/mL,2 µg/mL,> 128 µg/mL,> 128 µg/mL,16 µg/mL,,,,,,
C=CCc1ccc(OCC(=O)NC(CCCCN)C(=O)NCCCCCCCCCCCC)c(-c2ccc(OCC(=O)NC(CCCCN)C(=O)NCCCCCCCCCCCC)c(CC=C)c2)c1.O=C(O)C(F)(F)F.O=C(O)C(F)(F)F (stereo not given),64 µg/mL,,64 µg/mL,> 128 µg/mL,> 128 µg/mL,> 128 µg/mL,128 µg/mL,,,,,,
C=CCc1ccc(OCC(=O)NCCCCN)c(-c2ccc(OCC(=O)NCCCCN)c(CC=C)c2)c1.O=C(O)C(F)(F)F.O=C(O)C(F)(F)F,64 µg/mL,,32 µg/mL,128 µg/mL,64 µg/mL,128 µg/mL,32 µg/mL,,,,,,
C=CCc1ccc(OCCC[N+](C)(C)CCCCCCCCCCCC)c(-c2ccc(OCCC[N+](C)(C)CCCCCCCCCCCC)c(CC=C)c2)c1.[Br-].[Br-],128 µg/mL,,> 128 µg/mL,> 128 µg/mL,> 128 µg/mL,> 128 µg/mL,128 µg/mL,,,,,,
C=CCc1ccc(OCC(=O)NCCC[N+](C)(C)CCCCCCCCCCCC)c(-c2ccc(OCC(=O)NCCC[N+](C)(C)CCCCCCCCCCCC)c(CC=C)c2)c1.[Br-].[Br-],8 µg/mL,,4 µg/mL,32 µg/mL,128 µg/mL,32 µg/mL,8 µg/mL,,,,,,
CCn1cc(C(=O)O)c(=O)c2cc(F)c(N3CCNCC3)cc21 [NORFLOXACIN],,,,,,,,,,256,,,
C=CCc1ccc(OCC(=O)NC(CCCCN)C(=O)NCCCCCCCC)c(-c2ccc(OCC(=O)NC(CCCCN)C(=O)NCCCCCCCC)c(CC=C)c2)c1.O=C(O)C(F)(F)F.O=C(O)C(F)(F)F (stereo not given),16 µg/mL,,8 µg/mL,8 µg/mL,128 µg/mL,64 µg/mL,16 µg/mL,,,,,,
C=CCc1ccc(OCCC[N+](C)(C)CCCC)c(-c2ccc(OCCC[N+](C)(C)CCCC)c(CC=C)c2)c1.[Br-].[Br-],8 µg/mL,295,4 µg/mL,4 µg/mL,128 µg/mL,16 µg/mL,4 µg/mL,1180 µg/mL,,,,,
C=CCc1ccc(OCC(=O)NCCN)c(-c2ccc(OCC(=O)NCCN)c(CC=C)c2)c1.O=C(O)C(F)(F)F.O=C(O)C(F)(F)F,32 µg/mL,,32 µg/mL,128 µg/mL,128 µg/mL,64 µg/mL,32 µg/mL,,,,,,
O=C(O)c1cn(C2CC2)c2cc(N3CCNCC3)c(F)cc2c1=O [CIPROFLOXACIN],,,,,,,,,,,1.56,2.01,1.52
C=CCc1ccc(OCC(=O)NCCCN)c(-c2ccc(OCC(=O)NCCCN)c(CC=C)c2)c1.O=C(O)C(F)(F)F.O=C(O)C(F)(F)F,64 µg/mL,,64 µg/mL,> 128 µg/mL,64 µg/mL,128 µg/mL,32 µg/mL,,,,,,
C=CCc1ccc(OCC(=O)NCCCN(C)C)c(-c2ccc(OCC(=O)NCCCN(C)C)c(CC=C)c2)c1,128 µg/mL,,> 128 µg/mL,> 128 µg/mL,> 128 µg/mL,> 128 µg/mL,128 µg/mL,,,,,,
C=CCc1ccc(OCCCN)c(-c2ccc(OCCCN)c(CC=C)c2)c1.Cl.Cl,8 µg/mL,110,4 µg/mL,32 µg/mL,64 µg/mL,> 128 µg/mL,4 µg/mL,438 µg/mL,,,,,
C=CCc1ccc(OCC(=O)NC(CCCCN)C(=O)NCc2ccc(C(C)(C)C)cc2)c(-c2ccc(OCC(=O)NC(CCCCN)C(=O)NCc3ccc(C(C)(C)C)cc3)c(CC=C)c2)c1.O=C(O)C(F)(F)F.O=C(O)C(F)(F)F (stereo not given),16 µg/mL,,4 µg/mL,4 µg/mL,> 128 µg/mL,128 µg/mL,8 µg/mL,,,,,,
